In US6001880A, “Alkylenediamine derivative, anti-ulcer drug, and antibacterial drug” (Shiseido Co., Ltd., priority 1997, dated 1999):

Assays:
[1] = test system: stress ulcer formation in rats; assay: WIS: Restraint and Water Immersion Stress-Induced Ulcer Inhibition Test; type: in vivo, rat (male Crj:SD or Slc:SD); details: 100 mg/kg oral, 10 minutes before 7 h restraint and water immersion (21° C.)
Procedure: WIS: Restraint and Water Immersion Stress-Induced Ulcer Inhibition Test
The degree of inhibition of the stress ulcer formation is tested.
Male Crj:SD or Slc:SD rats (6 to 7-week-old) were fasted overnight, but allowed free access to water. Each group has 5 to 8 of these rats. The sample compound was dissolved or suspended in an aqueous solution of 0.3% sodium carboxymethylcellulose or 0.05% Tween 80 and then was orally administered (100 mg/10 ml/kg). To a control group, the vehicle was administered. 10 minutes later, the rats were placed in a stress cage and immersed to the level of xipfoid process in a water bath (21° C.) for 7 hours. At the end of the stress, the rats were sacrificed by inhalation of ether or carbon dioxide. Then, the stomach of each was removed, inflated by injecting 10 ml of 5% formalin neutral buffer solution, and immersed in 1% formalin neutral buffer solution for 30 minutes or more to be fixed. The stomach was incised along the greater curvature and then the length of each erosion in the glandular portion was determined under dissecting microscope. The sum of the length of erosions per stomach was defined as ulcer index (UI).
The effect obtained when 100 mg/kg of the sample compound had been administered was expressed as ulcer formation inhibitory rate (%) as follows:
ulcer formation inhibitory rate (%)=(1-(UI in sample group/UI in control

[2] = test system: isolated gastric fundic gland; assay: CAP: Acid Secretion Inhibition Test In Vitro ([14C]-aminopyrine uptake); type: cell-based, rabbit (male Japanese White); details: Oryctolagus cuniculus; final concentration 10^-5 M; histamine 10^-5 M stimulation; read-out: CAP: acid secretion inhibitory rate
Procedure: CAP: Acid Secretion Inhibition Test In Vitro
The acid secretion inhibitory activity in a cell level is studied. It can also be used for studying the mechanism of the effect.
First, an isolated gastric fundic gland sample was prepared. Namely, a male Japanese White rabbit (2.5 to 3 kg) was anesthetized to death with Nembutal™ and then the abdomen was incised. Immediately thereafter, the stomach was removed and, after its pyloric and cardiac antrum were severed, incised along its greater curvature into two sheets. The gastric contents adhering to the mucosal surface was washed out with ice-cooled PBS (-) and then carefully washed therein. The gastric wall was spread on a cork board with its mucosal surface facing up and the feed and mucus thereon were completely removed with sterile gauze. The mucosa was separated therefrom by a spatula and then collected in ice-cooled PBS (-). After being washed twice with PBS (-), the mucosa was minced into 2-3 mm^3 pieces by scissors. These pieces were further washed twice with a nutrient solution. The nutrient solution comprises 132.4 mM of NaCl, 5.4 mM of KCl, 5 mM of Na2 HPO4. 12H2 O, 1 mM of NaH2 PO4.2H2 O, 1.2 mM of MgSO4, 1 mM of CaCl2, 25 mM of HEPES, 2 mg/ml of glucose, and 1 mg/ml of BSA.
Into 70 ml of the nutrient solution containing 1 mg/ml of collagenase, minced mucosal pieces were dispersed and intensely stirred in a conical flask with a stirrer at 37° C. for 40 to 60 minutes. During this period, 100% O2 was sprayed on the nutrient solution surface and the pH was appropriately measured such that it was immediately adjusted to pH 7.4, when the value was therebelow, with a base. The nutrient solution was added to the reaction solution so as to attain the total amount of about 200 ml. After being filtered through a mesh, the suspension was divisionally introduced into 50 ml centrifuge tubes and left for 15 minutes such that gastric fundic gland was deposited. The supernatant was repeatedly removed by an aspirator, dispersed in the nutrient solution, and then left such that the gastric fundic gland was washed three times. At this time, without using a pipette, the suspension was alternately introduced into two centrifuge tubes so as to effect dispersion. The number of cells was counted under microscope and adjusted to 1.6×10^6 cells/ml.
Then, [^14 C]-aminopyrine uptake test was performed. After an Eppendorf tube was weighed, 10 μl (final concentration: 10^-5 M) of histamine dissolved in the above-mentioned nutrient solution, 10 μl (final concentration: […]) of the test compound dissolved in DMSO, and 10 μl (final concentration: 0.05 μCi/ml) of [^14 C]-aminopyrine diluted with the nutrient solution were introduced therein and then 970 μl of the isolated gastric fundic gland suspension prepared above was added thereto. Subsequently, this mixture was shaken at 37° C. for 40 minutes at 125 cycles/minute. After being centrifuged for 30 seconds, 200 μl of its supernatant was collected into a mini-vial, while the rest was removed by an aspirator. The gland pellet was completely dried as the tube with its lid being opened was kept for one night in a drying oven at 80° C. and then the lid was closed and the weight was determined at room temperature. Then 100 μl of 1N KOH was added thereto and the tube with its lid being closed was treated at 60° C. for 1 to 2 hours so as to dissolve the pellet. Then, the contents thereof were transferred to a mini-vial. Into the mini-vial containing the supernatant or gland pellet, 4 ml of Atomlite™ was added and then the radioactivity was measured by a liquid scintillation counter. Here, after the radioactivity of the gland pellet was corrected by using a sample in which 20 mM of NaSCN was added so as to cancel the hydrogen ion concentration gradient, the integration ratio of aminopyrine specifically trapped by the gland pellet was calculated. This experiment was performed in duplicate.
Here, its principle will be briefly explained. […]

[3] = MTT: Cell Damaging and Protecting Effect Test; type: cell-based, rabbit (male Japanese White); details: rabbit, gastric corpus mucosa cells, final concentration 10^-4 M, smaller value is better, read-out: MTT: cell damaging rate
Description: MTT: Cell Damaging and Protecting Effect Test
It is confirmed that there is no toxicity in cell level. Those having a toxicity in cell level are inappropriate as an anti-ulcer drug.
A male Japanese White rabbit (2.5 to 3 kg) was anesthetized to death by Nembutal™ and, immediately thereafter, its stomach was removed. The greater curvature of the stomach was incised so as to remove the stomach contents therefrom. After the mucosal surface was washed with HBSS (Hanks' Balanced Salt Solution), the stomach in ice-cooled HBSS was transferred to a laboratory. Then, after the pyloric antrum was removed, the gastric corpus mucosa was separated by a spatula and then minced into 2 to 3 mm^3 pieces in BME (Basal Medium Eagle). Thereafter, these pieces were shaken at 120 to 130 cycles/minute for 15 minutes at 37° C. in BME 60 ml containing 280 U/ml of dispase and 30 to 50 U/ml of collagenase. Here, the concentration of collagenase was appropriately changed for each lot in view of the state of cells. The pieces were washed twice with EBSS (Earle's Balanced Salt Solution) containing 1 mM of EDTA and then shaken in MEM (Minimum Essential Medium) containing 1 mM of EDTA at 37° C. for 5 minutes. Subsequently, they were shaken in the dispase and collagenase having the same concentrations as those mentioned above for 15 minutes so as to remove the supernatant and then further shaken at 37° C. for 50 to 60 minutes at 120 to 130 cycles/minute. Then, after being washed twice with HBSS, Ham F12 containing 2% of Ultrocer G™ was used to attain the concentration of 1×10^6 cells/ml. Thus formed suspension was dispensed in each well of a 96-well plate by 200 μl. The plate was incubated in the atmosphere composed of 5% CO2 and 95% air at 37° C. for three days so as to attain a confluent state and then subjected to MTT assay.
The sample compound was dissolved in DMSO so as to attain a concentration of 10^-2 M and then diluted with HBSS containing 2% of Ultrocer G™ so as to attain a final concentration of 10^-4 M. To each group, which 8 wells were used for, 10 μl of MTT reagent was added immediately after 100 μl of the medium in each well was exchanged for same volume of the resulting solution of the sample compound. After being incubated in an atmosphere composed of 5% CO2 and 95% air at 37° C. for 4 hours, thus formed solution was centrifuged and then its supernatant was discarded. Subsequently, 100 μl of 100% ethanol was added to the residue so as to dissolve MTT formazan. Then, the absorbance (OD: 570 to 630) was measured by a microplate reader. This method utilizes a phenomenon in which MTT is changed to MTT formazan only by mitochondria of living cells so as to change color.
The cell damaging or cell protecting effect of the sample compound at the final concentration of 10^-4 M was expressed as cell damaging rate (%) as follows:
cell damaging rate (%)=(1-(absorbance in sample group/absorbance in control
Accordingly, the smaller value is better in the cell damaging rate.

Compound	WIS: ulcer formation inhibitory rate [1]	inhibition at 10 µM [2]	cytotoxicity at 4 h, 100 µM [3]
CCN(CC)CCNC(=O)c1cccc(OC/C=C(\C)CCC=C(C)C)c1 [Example 1]	72%		
CCN(CC)CCNC(=O)c1ccc(OC/C=C(\C)CCC=C(C)C)cc1 [Example 4]	83%		
CCN(CC)CCNC(=O)c1ccc(OC/C=C(\C)CC/C=C(\C)CCC=C(C)C)cc1 [Example 6]	52%	97.9%	
CC(C)=CCC/C(C)=C/COc1ccc(C(=O)NCCN(CC(C)C)CC(C)C)cc1 [Example 9]	40%		15%
CC(C)=CCC/C(C)=C/COc1ccc(C(=O)NCCN(C)CC(C)C)cc1 [Example 10]	65%		
CCCCN(C)CCNC(=O)c1ccc(OC/C=C(\C)CCC=C(C)C)cc1 [Example 11]	45%	100%	
CC(C)=CCC/C(C)=C/COc1ccc(C(=O)NCCN(C)C(C)(C)C)cc1 [Example 12]	34%	99.9%	
CCN(CC)CCNC(=O)c1ccc(OC/C=C(\C)CCC=C(C)C)c(OC/C=C(\C)CCC=C(C)C)c1 [Example 18]	37%		
CCN(CC)CCNC(=O)c1cc(OC/C=C(\C)CCC=C(C)C)cc(OC/C=C(\C)CCC=C(C)C)c1 [Example 19]	69%		
CCN(CC)CCNC(=O)c1cc(OCC=C(C)C)c(OCC=C(C)C)c(OCC=C(C)C)c1 [Example 23]	81%		
CC(C)=CCOc1cc(C(=O)NCCN(C)C)cc(OCC=C(C)C)c1OCC=C(C)C [Example 24]	70%		
CC(C)=CCC/C(C)=C/CNc1ccc(C(=O)NCCN(C(C)C)C(C)C)cc1 [Example 26]	49%	100%	
CC(C)=CCC/C(C)=C/COc1ccc(C(=O)NCCN(C(C)C)C(C)C)cc1CC(C)C [Example 34]	48%	100%	
CCN(CC)CCNC(=O)c1cc(OC)c(OCC=C(C)C)c(OC)c1 [Example 36]	88%		
CCN(CC)CCNC(=O)c1cc(OC)c(OC)c(OCC=C(C)C)c1 [Example 40]	79%		-2%
COc1cc(C(=O)NCCN(C)C)cc(OC)c1OC/C=C(\C)CCC=C(C)C [Example 43]	88%		1%
CC(C)=CCOc1ccc(C(=O)NCCN(C)C)cn1 [Example 44]	30%		
CC(C)=CCOc1ncccc1C(=O)NCCN(C)C [Example 45]	41%		
CCN(CC)CCNC(=O)c1cccnc1OCC=C(C)C [Example 47]	80%		
CC(C)=CCC/C(C)=C/COc1ccc(C(=O)NCCN(C)C)cn1 [Example 49]	38%		
CCN(CC)CCNC(=O)c1cccnc1OC/C=C(\C)CCC=C(C)C [Example 52]	57%	101%	
CC(C)=CCOc1cccnc1C(=O)NCCN(C)C [Example 53]	67%		1%
CCN(CC)CCNC(=O)c1ncccc1OCC=C(C)C [Example 54]	78%		-10%
CC(C)=CCOc1cccnc1C(=O)NCCN(C(C)C)C(C)C [Example 55]	97%		20%
CC(C)COc1ccc(C(=O)NCCN(C(C)C)C(C)C)cc1 [Example 60]	98%	97.3%	
CC(C)N(CCNC(=O)c1ccc(C(C)(C)C)cc1)C(C)C [Example 61]	94%	97.3%	
CCCCCCCCc1ccc(C(=O)NCCN(C(C)C)C(C)C)cc1 [Example 63]	49%	101%	
CC(C)N(CCNC(=O)c1ccc(N(C)C)cc1)C(C)C [Example 70]	66%	101%	
